Source: patent publication US4927831A, “Spiro-isoquinoline-pyrrolidine tetrones and analogs thereof useful as aldose reductase inhibitors” (American Home Products, priority 1989, dated 1990)
Where two headings read alike, the source gives them in different places. Blank lines part the entries; values can stand above or below the molecule they belong to.

Assays:
[1] = test system: dulcitol accumulation in the sciatic nerve; assay: % lowering of dulcitol accumulation in sciatic nerve (N) of galactosemic rats; type: in vivo, Sprague-Dawley; design: key: NS: statistically nonsignificant change; conditions: 4 days
Text: (§1) The aldose reductase inhibiting property of the compounds of this invention and the utilization of the compounds in preventing, diminishing and alleviating diabetic complications are demonstrable in experiments using galactosemic rats, see Dvornik et al., Science, 182, 1146 (1973). Such experiments are exemplified hereinbelow after the listing of the following general comments pertaining to these experiments:
(§2) (a) Four or more groups of six male rats, 50-70 g, Sprague-Dawley strain, were used. The first group, the control group, was fed a mixture of laboratory chow (rodent Laboratory Chow, Purina) and glucose at 20% (w/w %) concentration. An untreated galactosemic group was fed a similar diet in which galactose was substituted for glucose. The third group was fed a diet prepared by mixing a given amount of the test compound with the galactose containing diet. The concentration of galactose in the diet of the treated groups was the same as that for the untreated galactosemic group.
(§3) (b) After four days, the animals were killed by euthanization. Both the lens and sciatic nerve were removed, weighed and stored frozen for polyol determination.
(§4) (c) The polyol determination was performed by a modification of the procedure of M. Kraml and L. Cosyns, Clin. Biochem., 2,373 (1969). Only two minor reagent changes were made: (a) The rinsing mixture was an aqueous 5% (w/v) trichloroacetic acid solution and (b) the stock solution was prepared by dissolving 25 mg of dulcitol in 100 ml of an aqueous trichloroacetic acid solution. [N.B.: For each experiment the average value found in the tissue from rats fed the glucose diet was subtracted from the individual values found in the corresponding tissue in galactose-fed rats to obtain the amount of polyol accumulated.] The aldose reductase inhibiting effects of the compounds of formula (I) were also tested by employing an in vitro testing procedure similar to that described by S. Hayman and J.H. Kinoshita, J. Biol. Chem., 240,877 (1965). In the present case the procedure of Hayman and Kinoshita was modified in that the final chromatography step was omitted in the preparation of the enzyme from bovine lens.
(§5) The figures under L and N represent the percentage decrease of dulcitol accumulation in the tissues of the lens and sciatic nerve, respectively, for treated rats as compared to untreated rats.

[2] = molecular target: T1, aldose reductase (Bos taurus, UniProt P16116); assay: in vitro aldose reductase inhibition (modified Hayman and Kinoshita; enzyme from bovine lens); type: biochemical; conditions: read-out: % Inhibition IN VITRO
T1 construct: preparation of the enzyme from bovine lens; from tissue; host or cells: bovine lens
Method: Only two minor reagent changes were made: (a) The rinsing mixture was an aqueous 5% (w/v) trichloroacetic acid solution and (b) the stock solution was prepared by dissolving 25 mg of dulcitol in 100 ml of an aqueous trichloroacetic acid solution. [N.B.: For each experiment the average value found in the tissue from rats fed the glucose diet was subtracted from the individual values found in the corresponding tissue in galactose-fed rats to obtain the amount of polyol accumulated.] […] In the present case the procedure of Hayman and Kinoshita was modified in that the final chromatography step was omitted in the preparation of the enzyme from bovine lens. […] The figures under L and N represent the percentage decrease of dulcitol accumulation in the tissues of the lens and sciatic nerve, respectively, for treated rats as compared to untreated rats.

[3] = test system: dulcitol accumulation in the lens; assay: % lowering of dulcitol accumulation in lens (L) of galactosemic rats; type: in vivo, Sprague-Dawley; design: key: NS: statistically nonsignificant change; conditions: 4 days
Text: as §1, §2, §3, §4, §5

Compound: O=C1C[C@]2(C(=O)N1)C(=O)N(Cc1ccc(Br)cc1F)C(=O)c1ccc(F)cc12 [(S)-(-)-[2-[(4-Bromo-2-fluorophenyl)methyl]-6-fluoro]spiro[isoquinoline-4(1H),3'-pyrrolidine]-1,2',3,5'(2H)-tetrone]
% Lowering Dulcitol Accumulation IN VIVO, N (sciatic nerve) ([1]; 0.4 mg/kg in diet): 40%
% Lowering Dulcitol Accumulation IN VIVO, N (sciatic nerve) ([1]; 0.8 mg/kg in diet): 70%
inhibition at 0.04 µM [2]: 29%
inhibition at 0.1 µM [2]: 46%
inhibition at 1 µM [2]: 97%
inhibition at 10 µM [2]: 98%
% Lowering Dulcitol Accumulation IN VIVO, L (lens) ([3]; 0.4 mg/kg in diet): NS
% Lowering Dulcitol Accumulation IN VIVO, L (lens) ([3]; 0.8 mg/kg in diet): 21%

inhibition at 0.04 µM ([2]; 4 × 10^-8 M): 34%
inhibition at 10 µM ([2]; 10^-5 M): 95%
inhibition at 1 µM ([2]; 10^-6 M): 92%
inhibition at 0.1 µM ([2]; 10^-7 M): 61%
Compound: CN1C(=O)c2cc(Cl)ccc2C2(CC(=O)NC2=O)C1=O (stereo not shown) [H 7-Cl CH3, 7-Chloro-2-methylspiro[isoquinoline-4(1H)3'-pyrrolidine]-1,2',3,5'(2H)-tetrone]
% Lowering Dulcitol Accumulation IN VIVO, N (sciatic nerve) ([1]; 3.0 mg/kg in diet): 21%
% Lowering Dulcitol Accumulation IN VIVO, L (lens) ([3]; 3.0 mg/kg in diet): 14%

Compound: CCCN1C(=O)c2ccccc2C2(CC(=O)NC2=O)C1=O (stereo not shown) [H H (CH2)2 CH3, 2-Propylspiro[isoquinoline-4(1H),3'-pyrrolidine]-1,2',3,5'(2H)-tetrone]
% Lowering Dulcitol Accumulation IN VIVO, N (sciatic nerve) ([1]; 11 mg/kg in diet): NS
inhibition at 0.04 µM ([2]; 4 × 10^-8 M): 8%
inhibition at 1 µM ([2]; 10^-6 M): 62%
inhibition at 0.1 µM ([2]; 10^-7 M): 19%
inhibition at 10 µM [2]: 94%
% Lowering Dulcitol Accumulation IN VIVO, L (lens) ([3]; 11 mg/kg in diet): NS

Compound: CCCCN1C(=O)c2ccccc2C2(CC(=O)NC2=O)C1=O (stereo not shown) [H H (CH2)3 CH3, 2-Butylspiro[isoquinoline-4(1H),3'-pyrrolidine]-1,2',3,5'(2H)-tetrone]
% Lowering Dulcitol Accumulation IN VIVO, N (sciatic nerve) ([1]; 10.0 mg/kg in diet): NS
inhibition at 0.04 µM ([2]; 4 × 10^-8 M): 19%
inhibition at 10 µM ([2]; 10^-5 M): 99%
inhibition at 0.1 µM ([2]; 10^-7 M): 17%
inhibition at 1 µM [2]: 86%
% Lowering Dulcitol Accumulation IN VIVO, L (lens) ([3]; 10.0 mg/kg in diet): NS

Compound: CCN1C(=O)c2ccccc2C2(CC(=O)NC2=O)C1=O (stereo not shown) [H H CH2 CH3, 2-Ethylspiro[isoquinoline-4(1H),3'-pyrrolidine]-1,2',3,5'(2H)-tetrone]
% Lowering Dulcitol Accumulation IN VIVO, N (sciatic nerve) ([1]; 11 mg/kg in diet): NS
inhibition at 0.04 µM ([2]; 4 × 10^-8 M): 17%
inhibition at 1 µM ([2]; 10^-6 M): 76%
inhibition at 0.1 µM ([2]; 10^-7 M): 27%
inhibition at 10 µM [2]: 96%
% Lowering Dulcitol Accumulation IN VIVO, L (lens) ([3]; 11 mg/kg in diet): NS

Compound: CN1C(=O)c2ccccc2C2(CC(=O)NC2=O)C1=O (stereo not shown) [H H CH3, 2-Methylspiro[isoquinoline-4(1H),3'-pyrrolidine]-1,2',3,5'(2H)-tetrone]
% Lowering Dulcitol Accumulation IN VIVO, N (sciatic nerve) ([1]; 1.0 mg/kg in diet): 37.0%
% Lowering Dulcitol Accumulation IN VIVO, N (sciatic nerve) ([1]; 3.0 mg/kg in diet): 66.0%
% Lowering Dulcitol Accumulation IN VIVO, N (sciatic nerve) ([1]; 10.0 mg/kg in diet): 79.0%
% Lowering Dulcitol Accumulation IN VIVO, N (sciatic nerve) ([1]; 43.0 mg/kg in diet): 89.0%
inhibition at 10 µM ([2]; 10^-5 M): 95%
inhibition at 1 µM ([2]; 10^-6 M): 91%
inhibition at 0.1 µM ([2]; 10^-7 M): 63%
inhibition at 0.04 µM [2]: 38%
% Lowering Dulcitol Accumulation IN VIVO, L (lens) ([3]; 1.0 mg/kg in diet): 15.0%
% Lowering Dulcitol Accumulation IN VIVO, L (lens) ([3]; 3.0 mg/kg in diet): 43.0%
% Lowering Dulcitol Accumulation IN VIVO, L (lens) ([3]; 10.0 mg/kg in diet): 62.0%
% Lowering Dulcitol Accumulation IN VIVO, L (lens) ([3]; 43.0 mg/kg in diet): 86.0%

inhibition at 0.04 µM ([2]; 4 × 10^-8 M): 44%
inhibition at 10 µM ([2]; 10^-5 M): 98%
inhibition at 1 µM ([2]; 10^-6 M): 98%
inhibition at 0.1 µM ([2]; 10^-7 M): 92%
Compound: O=C1CC2(C(=O)N1)C(=O)N(Cc1ccc(Br)cc1F)C(=O)c1cccc(F)c12 (stereo not shown) [[2-[(4-Bromo-2-fluorophenyl)methyl]-5-fluoro]spiro[isoquinoline-4(1H),3'-pyrrolidine]-1,2',3,5'(2H)-tetrone]
% Lowering Dulcitol Accumulation IN VIVO, N (sciatic nerve) ([1]; 0.5 mg/kg in diet): 52.5%
% Lowering Dulcitol Accumulation IN VIVO, N (sciatic nerve) ([1]; 1.0 mg/kg in diet): 77.0%
% Lowering Dulcitol Accumulation IN VIVO, L (lens) ([3]; 0.5 mg/kg in diet): 14.2%
% Lowering Dulcitol Accumulation IN VIVO, L (lens) ([3]; 1.0 mg/kg in diet): 23.9%
